The subject of data set [1] is photoaged females. Nature of the data set: Subject efficacy: self-assessed photodamage parameters, 5-point ordinal scale. The data set is classed as in vivo, human. From the text: (§1) The dermatologist-investigator and subjects assessed the following facial efficacy parameters: overall severity of photodamage, dryness, lack of tactile smoothness, lack of visual smoothness, lack of softness, lack of luminosity, lack of radiance, lack of firmness, poor skin texture, fine facial wrinkles, crow's feet, dyschromia, and crepey cheek skin texture. All assessments were graded on a 5-point ordinal scale (0=none, 1=minimal, 2=mild, 3=moderate, 4=severe). […] The investigator and subjects referred to baseline images (front, right and left side images) of the subjects in completing this evaluation.
(§2) Along with descriptive statistics (means, standard deviations, and percentages), investigator ordinal nonparametric data was analyzed using the Wilcoxon signed rank test and sign test for paired comparison at different time points within and between groups. Change was considered significant at a p-value of less than or equal to 0.05.
Subjects assessed their skin appearance across various photodamage parameters using a 5-pointordinal scale (0=none, 1=minimal, 2=mild, 3=moderate, 4=severe) at baseline, week 4, week 8, and week 12.

For data set [2], the system named is photoaged females. The data set is described as follows: Investigator efficacy: facial skin appearance parameters graded on 5-point ordinal scale. Format: in vivo, human. The settings on record: longitudinal intragroup.
Source text: as §1, §2
The investigator graded facial skin appearance parameters using a 5-point ordinal scale (0=none, 1=minimal, 2=mild, 3=moderate, 4=severe) at baseline (visit 1), week 4 (visit 2), and week 8 (visit 3), and week 12 (visit 4).

In data set [3] the test system is photoaged females. Nature of the data set: Subject overall clinical improvement from baseline, 5-point scale. Format: in vivo, human. To be noted: after 12 weeks; scale 1=much improved to 5=worse.
Source text: as §1

Data set [4] concerns photoaged females. The data set is described as follows: Adverse experiences and discontinuations in the clinical study.
Source text: A single-site, double-blind controlled comparative study enrolled 45 photoaged females ages 35-65, Fitzpatrick skin types I-IV, with moderate wrinkling. Subjects who used facial retinoids within 3 months of screening, and/or facial alpha-hydroxy acids within 1 month were excluded. Subjects were randomized 2:1 into the following groups:
The 0.25% retinal serum was used twice weekly for week 1, then every other night for week 2, then every night for weeks 3 and 4. The Test Moisturizer (Lipid Replenishing Cream, TOPIX Pharmaceuticals, Inc, Amityville, NY) was placed on top of the retinal serum at each nightly application and every morning.
Cell 2: 15 subjects applied 0.025% tretinoin cream for 4 weeks. The 0.025% tretinoin cream was used twice weekly for the week 1, then every other night for week 2, then every night for weeks 3 and 4. Test Moisturizing cream (CeraVe Moisturizing Cream, L'Oreal, NY) was placed on top of the tretinoin cream (Ortho Dermatologies, NJ) at each application and every morning.
Data set [5] concerns photoaged females. More on the design: species or system human. The settings on record: in vivo. The text has this:
Clinical photography was captured at each office visit using visible light of the central, right, and left face with a VISIA CR43 camera system (Canfield Scientific, NJ). Noninvasive assessments for barrier function in the form of transepidermal water loss (TEWL) measurements were taken from the left face using Evaporimeter, Cyberderm, Broomall, PA
TEWL (Evaporimeter, Cyberderm, Broomall, PA) measurements were taken at baseline, week 8, and week 12. […] TEWL increase was 16% lower in the retinol group as compared to the tretinoin group.

The structures appear in SMILES notation.

As for `CC1=C(/C=C/C(C)=C/C=C/C(C)=C/C(=O)O)C(C)(C)CCC1` [tretinoin], the “subject assessed improvement, intragroup longitudinal” value in the data set on photoaged females [1] (all time points) is on record as “experienced improvement”. The “softness, subject” value in the data set with photoaged females [1] (week 8, intragroup, retinol serum P<0.001) is recorded as “not seen until week 8”. Moreover, the “most parameters, subject” value in the data set on photoaged females [1] (week 12, intragroup) was “statistical significance”. Besides, in the data set on photoaged females [2] (week 4), the “luminosity, investigator” value is “statistically significant improvement”; the “radiance, investigator” value is listed as “statistically significant improvement”; the “softness, investigator” value is given as “statistically significant improvement”; the “tactile smoothness, investigator” value is “statistically significant improvement”. Also, the “visual smoothness, investigator” value with photoaged females [2] (week 4, retinol P=0.031) is “no significance”. In the data set with photoaged females [2] (week 8), the “firmness, investigator” value is recorded as “statistical significance”; the “luminosity, investigator” value is listed as “statistical significance”; the “overall photoaging appearance, investigator” value is on record as “statistical significance”; the “radiance, investigator” value is “statistical significance”. Besides, in the data set on photoaged females [2] (week 8), the “skin texture, investigator” value is “statistical significance”; the “softness, investigator” value is reported as “statistical significance”; the “tactile smoothness, investigator” value is “statistical significance”; the “visual smoothness, investigator” value is “statistical significance”. The “skin dryness, investigator” value in the data set on photoaged females [2] (week 8, retinol P<0.001) was “not seen”. In the data set with photoaged females [3], the “subject overall clinical improvement from baseline, on average reported” value is given as “much-improved”. In the data set on photoaged females [4] (12-week study, Cell 1 30 subjects, Cell 2 15 subjects), the “subjects discontinued due to retinoid tolerability issues” value is listed as “one”. For the same compound, the serious adverse events entry with photoaged females [4] (during the conduct of the study) was “No serious adverse events”. The “increase in TEWL” value in the data set with photoaged females [5] (female, human, 12 weeks) was determined as 104%. The “barrier damage (TEWL), intragroup” value in the data set on photoaged females [5] is reported as “induced barrier damage”.

(Values after patent US12016939B2, “Skin treatment methods and compositions for transdermal delivery of active agents” (Topix Pharmaceuticals, Inc., priority 2020, dated 2024).)
